Measured values reported in patent US9586968B2, “Bicycloamine-substituted-N-benzenesulfonamide compounds with selective activity in voltage-gated sodium channels” (Merck Sharp & Dohme Corp., priority 2013, dated 2017).

Legend:
[1] = molecular target: T1, human Nav1.7 (Homo sapiens, UniProt Q15858); test: PatchXpress automated patch-clamp, inactivated state block of Nav1.7; assay type: cell-based; details: channels stably expressed in HEK 293 cells, 22° C., read-out: potency for the Nav 1.7 sodium ion channel (as measured by PatchXpress)
T1 construct: expressed in transfected cells
Description: (§1) Compounds were tested on human Nav1.7 and Nav1.5 channels stably expressed in HEK 293 cells. Activity toward Nav 1.7 and Nav 1.5 channels was assessed using the following assay methodology.
(§2) Sodium Current Measurements on the PatchXpress 7000®:
(§3) To measure inactivated state block of sodium channels, test compounds were characterized in an automated PatchXpress® assay (Molecular Devices) using a double-pulse protocol on human Nav1.7 and Nav1.5 channels stably expressed in HEK 293 cells. Cells were held at a potential 20 mV negative to V0.5 inact. An 8000 ms pre-pulse 7 mV positive to V0.5 inact was given followed by a hyperpolarizing 2 ms pulse to −120 mV and a 20 ms test pulse to −20 mV. Protocol was applied to cells in the absence, presence of compound and after washout. The temperature of PatchXpress instruments was maintained at 22° C. The following recording solutions were used. Internal solution (mM): 30 CsCl, 5 HEPES, 10 EGTA, 120 CsF, 5 NaF, 2 MgCl2. External solution (mM): 120 NMDG, 40 NaCl, 1 KCl, 0.5 MgCl2, 5 HEPES, 2.7 CaCl2.
(§4) For all electrophysiology experiments, offline analysis was used to correct for current rundown and to determine percent inhibition as a function of drug concentration. IC50 values were determined by fitting to the Hill equation.

[2] = molecular target: T2, human Nav1.5 (Homo sapiens, UniProt Q14524); test: PatchXpress automated patch-clamp, inactivated state block of Nav1.5 (selectivity); assay type: cell-based; details: determined by PatchXpress measurement, HEK 293 cells
T2 construct: expressed in transfected cells
Description: as §1, §2, §3, §4

T1 sequence (Q15858 whole entry): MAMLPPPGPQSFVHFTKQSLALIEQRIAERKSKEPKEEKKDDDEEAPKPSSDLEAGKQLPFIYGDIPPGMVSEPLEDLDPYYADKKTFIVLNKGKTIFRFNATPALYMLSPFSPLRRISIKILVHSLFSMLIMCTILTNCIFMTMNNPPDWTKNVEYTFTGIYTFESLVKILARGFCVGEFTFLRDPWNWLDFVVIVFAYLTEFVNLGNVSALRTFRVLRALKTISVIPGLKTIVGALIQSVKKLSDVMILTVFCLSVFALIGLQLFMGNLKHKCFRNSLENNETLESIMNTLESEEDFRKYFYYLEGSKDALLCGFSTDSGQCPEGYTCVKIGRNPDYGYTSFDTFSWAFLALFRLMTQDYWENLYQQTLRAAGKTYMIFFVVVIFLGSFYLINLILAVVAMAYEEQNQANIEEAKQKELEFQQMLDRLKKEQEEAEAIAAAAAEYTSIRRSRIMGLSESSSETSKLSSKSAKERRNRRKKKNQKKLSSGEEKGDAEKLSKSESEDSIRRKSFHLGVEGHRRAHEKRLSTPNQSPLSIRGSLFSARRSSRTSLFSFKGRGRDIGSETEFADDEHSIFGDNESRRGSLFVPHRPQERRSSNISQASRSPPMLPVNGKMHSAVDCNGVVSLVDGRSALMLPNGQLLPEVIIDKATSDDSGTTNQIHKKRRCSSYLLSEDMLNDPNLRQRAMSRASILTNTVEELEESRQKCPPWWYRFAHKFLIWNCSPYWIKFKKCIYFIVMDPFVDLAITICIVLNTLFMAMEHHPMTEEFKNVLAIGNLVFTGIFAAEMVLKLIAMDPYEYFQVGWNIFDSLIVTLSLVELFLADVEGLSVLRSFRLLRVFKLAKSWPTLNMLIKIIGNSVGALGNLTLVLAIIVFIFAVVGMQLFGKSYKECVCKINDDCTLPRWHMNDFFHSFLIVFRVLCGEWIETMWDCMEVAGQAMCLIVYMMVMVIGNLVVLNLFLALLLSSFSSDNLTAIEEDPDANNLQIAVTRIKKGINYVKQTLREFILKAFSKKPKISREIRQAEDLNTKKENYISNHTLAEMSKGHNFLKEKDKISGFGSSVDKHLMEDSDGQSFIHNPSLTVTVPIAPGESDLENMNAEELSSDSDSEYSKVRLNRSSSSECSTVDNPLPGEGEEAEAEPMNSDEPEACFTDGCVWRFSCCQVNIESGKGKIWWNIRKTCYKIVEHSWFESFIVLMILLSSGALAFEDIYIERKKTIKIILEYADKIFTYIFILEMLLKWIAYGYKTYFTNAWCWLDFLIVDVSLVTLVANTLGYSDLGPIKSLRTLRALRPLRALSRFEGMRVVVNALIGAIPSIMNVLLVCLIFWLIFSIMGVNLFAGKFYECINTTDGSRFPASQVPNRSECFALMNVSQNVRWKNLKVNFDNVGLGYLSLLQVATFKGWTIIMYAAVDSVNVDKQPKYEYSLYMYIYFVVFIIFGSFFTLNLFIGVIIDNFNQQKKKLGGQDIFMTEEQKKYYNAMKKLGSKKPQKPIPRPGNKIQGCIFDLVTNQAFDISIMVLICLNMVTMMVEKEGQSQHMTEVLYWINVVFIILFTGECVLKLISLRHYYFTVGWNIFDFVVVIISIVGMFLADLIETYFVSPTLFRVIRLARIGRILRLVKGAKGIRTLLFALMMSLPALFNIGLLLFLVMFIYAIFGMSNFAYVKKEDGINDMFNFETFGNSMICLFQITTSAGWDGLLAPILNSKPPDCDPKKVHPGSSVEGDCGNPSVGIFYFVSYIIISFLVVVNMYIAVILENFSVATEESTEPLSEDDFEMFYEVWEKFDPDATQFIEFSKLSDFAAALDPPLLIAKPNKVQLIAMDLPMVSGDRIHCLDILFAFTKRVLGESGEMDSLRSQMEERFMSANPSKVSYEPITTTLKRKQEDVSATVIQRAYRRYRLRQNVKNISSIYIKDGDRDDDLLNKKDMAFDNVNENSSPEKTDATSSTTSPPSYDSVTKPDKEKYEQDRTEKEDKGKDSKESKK
T2 sequence (Q14524 whole entry): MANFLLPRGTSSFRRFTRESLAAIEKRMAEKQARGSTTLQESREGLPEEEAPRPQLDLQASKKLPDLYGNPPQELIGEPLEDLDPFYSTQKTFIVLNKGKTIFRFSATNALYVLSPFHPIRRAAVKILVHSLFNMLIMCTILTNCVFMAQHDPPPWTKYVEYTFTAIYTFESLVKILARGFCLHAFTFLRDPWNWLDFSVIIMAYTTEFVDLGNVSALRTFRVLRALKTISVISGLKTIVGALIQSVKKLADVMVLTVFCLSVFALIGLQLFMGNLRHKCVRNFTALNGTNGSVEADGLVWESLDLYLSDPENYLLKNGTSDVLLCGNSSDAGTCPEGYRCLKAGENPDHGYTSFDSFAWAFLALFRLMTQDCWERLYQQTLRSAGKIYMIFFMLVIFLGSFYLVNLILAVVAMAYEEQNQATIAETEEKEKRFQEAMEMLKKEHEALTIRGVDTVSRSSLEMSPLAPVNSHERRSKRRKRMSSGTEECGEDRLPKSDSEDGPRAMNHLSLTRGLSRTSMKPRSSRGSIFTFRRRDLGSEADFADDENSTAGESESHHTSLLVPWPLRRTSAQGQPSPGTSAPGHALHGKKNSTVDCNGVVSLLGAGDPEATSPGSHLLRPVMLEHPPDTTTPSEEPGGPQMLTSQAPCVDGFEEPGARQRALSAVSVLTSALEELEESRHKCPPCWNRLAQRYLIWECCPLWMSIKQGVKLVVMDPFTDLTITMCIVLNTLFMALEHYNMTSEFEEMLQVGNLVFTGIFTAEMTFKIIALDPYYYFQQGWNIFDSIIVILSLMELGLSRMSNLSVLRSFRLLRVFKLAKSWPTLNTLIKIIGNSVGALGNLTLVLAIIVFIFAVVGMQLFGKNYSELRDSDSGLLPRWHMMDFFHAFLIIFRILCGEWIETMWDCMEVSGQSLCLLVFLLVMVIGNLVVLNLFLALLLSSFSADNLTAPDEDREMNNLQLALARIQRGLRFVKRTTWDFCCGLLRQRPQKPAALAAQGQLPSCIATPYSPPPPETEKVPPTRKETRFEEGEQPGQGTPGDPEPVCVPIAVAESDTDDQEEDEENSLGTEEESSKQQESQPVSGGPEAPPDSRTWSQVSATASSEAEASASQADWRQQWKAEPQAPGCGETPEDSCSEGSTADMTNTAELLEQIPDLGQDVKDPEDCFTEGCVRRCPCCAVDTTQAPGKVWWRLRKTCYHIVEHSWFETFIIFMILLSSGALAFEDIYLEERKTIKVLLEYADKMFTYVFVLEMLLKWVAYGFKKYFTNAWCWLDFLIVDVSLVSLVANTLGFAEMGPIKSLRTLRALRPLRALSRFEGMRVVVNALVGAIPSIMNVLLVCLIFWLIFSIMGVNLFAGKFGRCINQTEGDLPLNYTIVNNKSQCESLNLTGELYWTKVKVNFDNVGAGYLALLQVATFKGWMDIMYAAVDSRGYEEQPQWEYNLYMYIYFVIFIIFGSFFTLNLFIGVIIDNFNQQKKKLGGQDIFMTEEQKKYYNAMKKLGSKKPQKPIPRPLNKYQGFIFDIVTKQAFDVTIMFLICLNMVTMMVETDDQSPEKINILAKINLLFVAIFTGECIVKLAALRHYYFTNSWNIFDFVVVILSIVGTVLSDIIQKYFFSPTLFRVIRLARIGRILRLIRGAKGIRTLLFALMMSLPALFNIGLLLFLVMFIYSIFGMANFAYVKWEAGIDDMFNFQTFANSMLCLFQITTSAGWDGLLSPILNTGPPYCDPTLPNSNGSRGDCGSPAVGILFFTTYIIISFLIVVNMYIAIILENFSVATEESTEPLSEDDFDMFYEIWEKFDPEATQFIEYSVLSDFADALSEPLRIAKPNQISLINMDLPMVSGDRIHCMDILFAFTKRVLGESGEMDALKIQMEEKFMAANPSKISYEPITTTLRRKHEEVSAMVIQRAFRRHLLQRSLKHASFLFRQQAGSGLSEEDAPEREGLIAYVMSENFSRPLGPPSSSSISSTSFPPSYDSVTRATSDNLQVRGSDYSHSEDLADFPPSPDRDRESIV

Row | SMILES | IC50 [1] | ratio of Nav1.7 potency:Nav 1.5 potency [2]
1 | CC1CN2CCCC2(CNc2ccc(S(=O)(=O)Nc3nccs3)cc2C#N)C1 (racemic) [Ex4-8, 3-cyano-4-{[((2S,7aR and 2R,7aS)-2-methyltetrahydro-1H-pyrrolizin-7a(5H)-yl)methyl]amino}-N-(1,3-thiazol-2-yl)benzenesulfonamide] | 0.027 µM | 1109
2 | N#Cc1cc(S(=O)(=O)Nc2nccs2)ccc1NCC12CCCN1CC(F)(F)C2 (racemic) [Ex6-6, (R and S)-3-cyano-4-{[(2,2-difluorotetrahydro-1H-pyrrolizin-7a(5H)-yl)methyl]amino}-N-(1,3-thiazol-2-yl)benzenesulfonamide] | 0.472 µM | 64
3 | O=S(=O)(Nc1ncc(Cl)s1)c1cc(Cl)c(NCC23CCCN2CC(F)(F)C3)cc1F (racemic) [Ex6-8, (R and S)-5-chloro-N-(5-chloro-1,3-thiazol-2-yl)-4-{[(2,2-difluorotetrahydro-1H-pyrrolizin-7a(5H)-yl)methyl]amino}-2-fluorobenzenesulfonamide] | 1.3 µM | 19
4 | Cc1csc(NS(=O)(=O)c2cc(Cl)c(NCC34CCCN3CC(C)(C)C4)cc2F)n1 (racemic) [Ex8-25, (R and S)-5-chloro-4-(((2,2-dimethylhexahydro-1H-pyrrolizin-7a-yl)methyl)amino)-2-fluoro-N-(4-methylthiazol-2-yl)benzenesulfonamide] | 0.032 µM | 947
5 | O=S(=O)(Nc1nccs1)c1cc(Cl)c(NCC23CCCN2C(CF)CC3)cc1F (racemic) [Ex14-10, 5-chloro-2-fluoro-4-((((3S,7aS and 3R,7aR)-3-(fluoromethyl)hexahydro-1H-pyrrolizin-7a-yl)methyl)amino)-N-(thiazol-2-yl)benzenesulfonamide] | 0.059 µM | 509
6 | CC(Nc1cc(F)c(S(=O)(=O)Nc2nccs2)cc1Cl)C12CCCN1CCC2 (single isomer, unassigned) [Ex5-8, 5-chloro-2-fluoro-4-{[(R or S)1-(tetrahydro-1H-pyrrolizin-7a(5H)-yl)ethyl]amino}-N-(1,3-thiazol-2-yl)benzenesulfonamide] | 0.052 µM | 407
7 | CC(Nc1cc(F)c(S(=O)(=O)Nc2nccs2)cc1Cl)C12CCCN1CCC2 (single isomer, unassigned) [Ex5-9, 5-chloro-2-fluoro-4-{[(1S or R)-1-(tetrahydro-1H-pyrrolizin-7a(5H)-yl)ethyl]amino}-N-(1,3-thiazol-2-yl)benzenesulfonamide] | 1.09 µM | 26
8 | CC1(C)CN2CCCC2(CNc2cc(F)c(S(=O)(=O)Nc3ncc(Cl)s3)cc2Cl)C1 (single isomer, unassigned) [Ex8-19-A, (R or S) 5-chloro-N-(5-chlorothiazol-2-yl)-4-(((2,2-dimethylhexahydro-1H-pyrrolizin-7a-yl)methyl)amino)-2-fluorobenzenesulfonamide] | 0.014 µM | 812
9 | CC1(C)CN2CCCC2(CNc2cc(F)c(S(=O)(=O)Nc3ncc(Cl)s3)cc2Cl)C1 (single isomer, unassigned) [Ex8-19-B, (S or R) 5-chloro-N-(5-chlorothiazol-2-yl)-4-(((2,2-dimethylhexahydro-1H-pyrrolizin-7a-yl)methyl)amino)-2-fluorobenzenesulfonamide] | 0.135 µM | 265
10 | CC1(C)CN2CCCC2(CNc2cc(F)c(S(=O)(=O)Nc3ncc(F)s3)cc2Cl)C1 (single isomer, unassigned) [Ex8-21-A, (R or S) 5-chloro-4-(((2,2-dimethylhexahydro-1H-pyrrolizin-7a-yl)methyl)amino)-2-fluoro-N-(5-fluorothiazol-2-yl)benzenesulfonamide] | 0.035 µM | 851
11 | CC1(C)CN2CCCC2(CNc2cc(F)c(S(=O)(=O)Nc3ncc(F)s3)cc2Cl)C1 (single isomer, unassigned) [Ex8-21-B, (S or R) 5-chloro-4-(((2,2-dimethylhexahydro-1H-pyrrolizin-7a-yl)methyl)-amino)-2-fluoro-N-(5-fluorothiazol-2-yl)-benzenesulfonamide] | 0.023 µM | 1290
12 | CC1(C)CN2CCCC2(CNc2ccc(S(=O)(=O)Nc3nccs3)cc2C(F)(F)F)C1 (single isomer, unassigned) [Ex8-23-A, (R or S) 4-(((2,2-dimethylhexahydro-1H-pyrrolizin-7a-yl)methyl)-amino)-N-(thiazol-2-yl)-3-(trifluoromethyl)benzene-sulfonamide] | 0.172 µM | 175
13 | CC1(C)CN2CCCC2(CNc2ccc(S(=O)(=O)Nc3nccs3)cc2C(F)(F)F)C1 (single isomer, unassigned) [Ex8-23-B, (S or R) 4-(((2,2-dimethylhexahydro-1H-pyrrolizin-7a-yl)methyl)amino)-N-(thiazol-2-yl)-3-(trifluoromethyl)-benzenesulfonamide] | 0.031 µM | 981
14 | O=S(=O)(Nc1ncc(F)s1)c1cc(Cl)c(NCC23CCCN2CC(F)C3)cc1F (single isomer, unassigned) [Ex9-10-A, 5-chloro-2-fluoro-4-((((2R,7aS or 2S,7aR)-2-fluoro-hexahydro-1H-pyrrolizin-7a-yl)-methyl)amino)-N-(5-fluorothiazol-2-yl)-benzenesulfonamide] | 0.148 µM | 137
15 | O=S(=O)(Nc1ncc(F)s1)c1cc(Cl)c(NCC23CCCN2CC(F)C3)cc1F (single isomer, unassigned) [Ex9-10-B, 5-chloro-2-fluoro-4-((((2S,7aR or 2R,7aS)-2-fluoro-hexahydro-1H-pyrrolizin-7a-yl)-methyl)amino)-N-(5-fluorothiazol-2-yl)-benzenesulfonamide] | 0.058 µM | 122
16 | O=S(=O)(Nc1ncc(F)s1)c1ccc(NCC23CCCN2CC(F)C3)c(C(F)(F)F)c1 (single isomer, unassigned) [Ex9-12-A, 4-((((2R,7aS or 2S,7aR)-2-fluoro-hexahydro-1H-pyrrolizin-7a-yl)-methyl)amino)-N-(5-fluorothiazol-2-yl)-3-(trifluoromethyl)-benzenesulfonamide] | 0.089 µM | 338
17 | O=S(=O)(Nc1ncc(F)s1)c1ccc(NCC23CCCN2CC(F)C3)c(C(F)(F)F)c1 (single isomer, unassigned) [Ex9-12-B, 4-((((2S,7aR or 2R,7aS)-2-fluoro-hexahydro-1H-pyrrolizin-7a-yl)methyl)amino)-N-(5-fluorothiazol-2-yl)-3-(trifluoromethyl)-benzenesulfonamide] | 0.08 µM | 300
18 | O=S(=O)(Nc1ncc(F)s1)c1ccc(NCC23CCCN2CC(F)C3)c(Cl)c1 (single isomer, unassigned) [Ex9-14-A, 3-chloro-4-((((2R,7aS or 2S,7aR)-2-fluoro-hexahydro-1H-pyrrolizin-7a-yl)-methyl)amino)-N-(5-fluorothiazol-2-yl)-benzenesulfonamide] | 0.144 µM | 208
19 | O=S(=O)(Nc1ncc(F)s1)c1ccc(NCC23CCCN2CC(F)C3)c(Cl)c1 (single isomer, unassigned) [Ex9-14-B, 3-chloro-4-((((2S,7aR or 2R,7aS)-2-fluoro-hexahydro-1H-pyrrolizin-7a-yl)methyl)amino)-N-(5-fluorothiazol-2-yl)-benzenesulfonamide] | 0.176 µM | 171
20 | O=S(=O)(Nc1nccs1)c1cc(Cl)c(NC[C@]23CCCN2CC2(C3)OCCO2)cc1F (single isomer, unassigned) [Ex10-7-A] | 0.01 µM | 3074
21 | O=S(=O)(Nc1nccs1)c1cc(Cl)c(NC[C@@]23CCCN2CC2(C3)OCCO2)cc1F (single isomer, unassigned) [Ex10-7-B] | 0.032 µM | 935
22 | O=S(=O)(Nc1ncc(Cl)s1)c1cc(Cl)c(NCC23CCCN2CC2(C3)OCCO2)cc1F (single isomer, unassigned) [Ex10-9-A, (S or R)-5-chloro-N-(5-chlorothiazol-2-yl)-2-fluoro-4-(((hexahydro-spiro[[1,3]dioxolane-2,2′-pyrrolizin]-7a′-yl)-methyl)amino)-benzenesulfonamide] | 0.025 µM | 1210
23 | O=S(=O)(Nc1ncc(Cl)s1)c1cc(Cl)c(NCC23CCCN2CC2(C3)OCCO2)cc1F (single isomer, unassigned) [Ex10-9-B, (R or S)-5-chloro-N-(5-chloro-thiazol-2-yl)-2-fluoro-4-(((hexahydrospiro[[1,3]-dioxolane-2,2′-pyrrolizin]-7a′-yl)-methyl)amino)-benzenesulfonamide] | 0.108 µM | 277
24 | CC1CN2CCCC2(CNc2cc(F)c(S(=O)(=O)Nc3nccs3)cc2Cl)C1 [Ex4-9, 5-chloro-2-fluoro-4-{[((2S,7aR and 2R,7aS)-2-methyl-tetrahydro-1H-pyrrolizin-7a(5H)-yl)methyl]amino}-N-(1,3-thiazol-2-yl)-benzenesulfonamide] | 0.009 µM | –
